Measurements published in paper PMC4949196, “Binding interaction of a gamma-aminobutyric acid derivative with serum albumin: an insight by fluorescence and molecular modeling analysis” (SpringerPlus, 2016).

Legend:
[1] = target: T1, bovine serum albumin (BSA) (Bos taurus, UniProt P02769); test: intrinsic tryptophan fluorescence quenching titration, Langmuir isotherm fit, room temperature, pH […]; type: binding
T1 construct: gene ALB

[2] = target: T2, human serum albumin (HSA) (Homo sapiens, UniProt P02768); test: as above; type: binding
T2 construct: gene ALB
T2 sequence (P02768 25-609): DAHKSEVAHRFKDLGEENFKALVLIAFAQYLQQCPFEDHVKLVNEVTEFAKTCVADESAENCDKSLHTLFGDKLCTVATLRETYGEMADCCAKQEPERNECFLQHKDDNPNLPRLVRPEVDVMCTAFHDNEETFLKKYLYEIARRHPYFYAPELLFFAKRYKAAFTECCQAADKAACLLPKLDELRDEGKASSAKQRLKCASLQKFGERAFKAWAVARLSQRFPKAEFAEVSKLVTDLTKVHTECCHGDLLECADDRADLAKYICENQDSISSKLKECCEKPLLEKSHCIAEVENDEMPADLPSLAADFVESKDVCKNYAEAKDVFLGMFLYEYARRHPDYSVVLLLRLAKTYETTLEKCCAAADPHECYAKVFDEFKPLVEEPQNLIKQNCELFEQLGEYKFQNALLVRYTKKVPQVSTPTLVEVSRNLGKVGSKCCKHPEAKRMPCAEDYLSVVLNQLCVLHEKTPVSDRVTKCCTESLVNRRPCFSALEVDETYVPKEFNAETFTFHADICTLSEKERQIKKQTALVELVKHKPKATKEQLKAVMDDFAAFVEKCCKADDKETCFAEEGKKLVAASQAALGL

T1 sequence (P02769 25-607): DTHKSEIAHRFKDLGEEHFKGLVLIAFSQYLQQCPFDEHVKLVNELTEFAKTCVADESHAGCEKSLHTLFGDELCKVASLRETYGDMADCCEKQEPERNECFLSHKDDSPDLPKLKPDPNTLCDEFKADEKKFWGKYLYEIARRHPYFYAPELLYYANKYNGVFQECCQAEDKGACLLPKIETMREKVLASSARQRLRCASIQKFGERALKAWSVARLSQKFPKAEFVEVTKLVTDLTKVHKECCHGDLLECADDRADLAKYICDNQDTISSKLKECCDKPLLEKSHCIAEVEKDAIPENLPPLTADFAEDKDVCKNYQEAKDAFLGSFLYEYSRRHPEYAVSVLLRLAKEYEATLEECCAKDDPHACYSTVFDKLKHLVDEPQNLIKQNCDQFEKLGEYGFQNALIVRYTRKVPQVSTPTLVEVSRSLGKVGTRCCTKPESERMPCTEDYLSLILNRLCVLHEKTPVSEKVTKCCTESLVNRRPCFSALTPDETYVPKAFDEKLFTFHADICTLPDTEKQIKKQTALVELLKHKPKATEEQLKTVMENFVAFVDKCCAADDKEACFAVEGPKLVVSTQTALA

With `COC(=O)CCCNC(=O)c1ccc(N(CC(=O)OC(C)(C)C)c2ccc(OC)cc2)cc1` [compound 5, methyl 4-(4-((2-(tert-butoxy)-2-oxoethyl)(4-methoxyphenyl)amino)benzamido)butanoate] the Kd [1] was 3.85 µM and the Kd [2] was 2.75 µM.
